Here are results for 19 molecules from PMC8345219 (Cancers, 2021).

Data set [1] is described as follows: Investigation of plasma stability (Tam-labeled peptides, RP-HPLC). It counts as in vitro ADME. As to conditions: Tam-modified peptides, 10^−5 M in human blood plasma, 37 °C; one-phase decay.
Protocol: Investigation of peptide stability in blood plasma was carried out as described previously [22]. Tam-labeled peptides were dissolved in human blood plasma at a concentration of 10^−5 M and incubated at 37 °C and 250 rpm. Samples taken at the respective time points were added to a solution of 0.1% SDS in ACN/EtOH (1:1). After incubation at −20 °C for 20 min, the supernatant was transferred to a new tube and incubated again at −20 °C for at least 3 h. […] Peaks were integrated, and the peak containing the intact peptide was normalized to the sample taken at t = 0 min (100%). Plasma half-life was determined using one-phase decay in Prism 5 (GraphPad, San Diego, CA, USA).
The next data set is described as follows: human blood plasma. As to conditions: 37 °C, up to 24 h.
For another data set, the target named is T1, hCMKLR1 (Homo sapiens, UniProt Q99788).
T1 sequence (Q99788 1-373): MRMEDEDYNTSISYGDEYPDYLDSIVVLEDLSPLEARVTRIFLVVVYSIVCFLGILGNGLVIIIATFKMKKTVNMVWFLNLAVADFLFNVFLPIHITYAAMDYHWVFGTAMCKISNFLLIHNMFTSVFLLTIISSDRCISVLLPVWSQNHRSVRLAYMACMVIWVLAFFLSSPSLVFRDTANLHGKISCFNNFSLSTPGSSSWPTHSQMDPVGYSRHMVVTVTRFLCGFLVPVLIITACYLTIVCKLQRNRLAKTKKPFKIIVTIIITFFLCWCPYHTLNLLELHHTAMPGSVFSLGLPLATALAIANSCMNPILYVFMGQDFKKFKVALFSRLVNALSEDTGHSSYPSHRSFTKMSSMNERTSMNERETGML
Put plainly: Calcium flux assay in COS-7 cells transfected with hCMKLR1_eYFP_GαΔ6qi4myr.

Data set [2] deals with HEK293 cells stably transfected with CMKLR1-eYFP. Put plainly: Resazurin-based cell viability assay, HEK293-CMKLR1. Particulars: HEK293-CMKLR1. How it is done:
(§1) HEK293 cells stably transfected with CMKLR1-eYFP, empty HEK293 cells (15,000 cells in 100 µL suspension/well), or HMEC-1 cells (5000 cells in 100 µL suspension/well) in their respective cell culture media were seeded in 96 well plates (coated with poly D-lysine for HEK cells) and incubated at standard conditions overnight. Afterward, cells were incubated with peptides or MTX dissolved in cell culture media, and a medium without peptides was used as a control. […] Ethanol or media was removed and a 50 µL resazurin-based in vitro toxicology assay kit (Sigma-Aldrich, St. Lous, MO, USA) in cell culture media (1:10) was added to each well. After 1 h incubation time, the conversion of the resazurin was detected by measuring the fluorescence intensity at λem = 590 nm. All experiments were performed in duplicates and each experiment was repeated at least three times. Nonlinear regression was calculated using GraphPad Prism 5, curves were normalized to untreated and ethanol-treated cells.
A general note: The colour change of resazurin is a common sign of viable cells or microbes.

Data set [3] concerns untransfected HEK293 cells. Briefly: Resazurin-based cell viability assay, untransfected HEK293. As to conditions: HEK293 cells devoid of CMKLR1, 72 h. The procedure: as §1
In data set [4] the test system is HEK293 cells stably transfected with CMKLR1-eYFP. Put plainly: Quantification of peptide uptake using a High Content Imager. It counts as cell-based. Particulars: 1 µM Tam-labeled peptide, up to 1 h. The procedure: Cells were stimulated with 1 µM of the respective, Tam-labeled peptide for the specified periods, followed by washing with acidic wash (50 mM glycine, 100 mM NaCl, pH 3) in HBSS. Microscopy was carried out in OptiMEM using an ImageXpress Micro Confocal High-Content Imaging System (Molecular Devices, San José, CA, USA), using the appropriate filters for the respective fluorophores (Table 1). The fluorescence intensity per cell was automatically analyzed for each well by a module detecting the nuclei (5–30 µm in diameter and 100 gray levels above background) and the granules by Tam-peptide fluorescence (2–5 µm in diameter, 70 gray levels above background).

In data set [5] the target is chemokine-like receptor 1 fused to eYFP (hCMKLR1-eYFP) (human) (UniProt Q99788).
Data set [6] shares this target. This is another data set of the same source.
Setting [7] is: EC50, Ca^2+ flux, normalized to chemerin-9 curve.

pEC50: −log10 of the molar value. Entries after “also recorded” stand apart in the source; their conditions may differ. *1 amine or outer side, *2 acyl side, *3 side chain or, on linkers, in order; H or OH if unused. Where a SMILES comes first, the peptide text is derived from it. Bridges are numbered along the chain shown (N, C = ends). Primed or numbered codes have the meaning given here. Where no end group is shown, it is not given here. [ ]: non-standard residue; d: D form. The star is where a group is joined. Tam = 6-carboxy tetramethylrhodamine, CN(C)c1ccc2c(-c3cc(C(=O)*)ccc3C(=O)[O-])c3ccc(N(C)C)cc3[o+]c2c1; X1 = CN(C)c1ccc2c(c1)Oc1cc(N(C)C)ccc1C21OC(=O)c2ccc(C(=O)*)cc21; EG(4) = polyethylene glycol with four ethylene glycol units; hCys = N[C@@H](CCS)C(=O)O; CH2 = C([*:1])[*:2]

Consider `CN(C)c1ccc2c(c1)Oc1cc(N(C)C)ccc1C21OC(=O)c2ccc(C(=O)NCCCC[C@@H]3NC(=O)[C@H](Cc4ccccc4)NC(=O)[C@H](CCC(N)=O)NC(=O)[C@H](NC(=O)[C@@H]4CCCN4C(=O)[C@H](Cc4ccccc4)NC(=O)[C@H](N)Cc4ccc(O)cc4)CSSC[C@@H](C(=O)O)NC(=O)[C@H](Cc4ccccc4)NC3=O)cc21` [Compound 8T, yFP(cQFK(Tam)FC)] (H-[dY]FP[dC]QFK(X1)FC-OH; disulfide 4-9), for which the half-life (usually how long it takes for the measured level to halve) in data set [1] was more than 1440 min. On to “Tam-YFP(cQFAFC) (X1-YFP[dC]QFAFC-OH; disulfide 4-9)”, for which the not cleaved result in the data set “human blood plasma” is listed as “remained completely intact for the course of the experiment (24 h); t1/2 >24 h”. `C[C@@H]1NC(=O)[C@H](Cc2ccccc2)NC(=O)[C@H](CCC(N)=O)NC(=O)[C@H](NC(=O)[C@@H]2CCCN2C(=O)[C@H](Cc2ccccc2)NC(=O)[C@H](Cc2ccc(O)cc2)NC(=O)c2ccc3c(c2)C2(OC3=O)c3ccc(N(C)C)cc3Oc3cc(N(C)C)ccc32)CSSC[C@@H](C(=O)O)NC(=O)[C@H](Cc2ccccc2)NC1=O` [Compound 4T, Tam-YFP(cQFAFC)] (X1-YFP[dC]QFAFC-OH; disulfide 4-9) came in with a half-life in data set [1] of more than 1440 min. As for `C[C@@H]1NC(=O)[C@H](Cc2ccccc2)NC(=O)[C@H](CCC(N)=O)NC(=O)[C@H](NC(=O)[C@@H]2CCCN2C(=O)[C@H](Cc2ccccc2)NC(=O)[C@@H](N)Cc2ccc(O)cc2)CSCSCC[C@@H](C(=O)O)NC(=O)[C@H](Cc2ccccc2)NC1=O` [Compound 6, YFP(c(CH2)QFAFX)] (H-YFP[dC]QFAF[hCys]-OH; linker 4-9 via CH2), the pEC50 – broadly, the EC50 on a negative log10 scale, so that one unit is a factor of ten – at hCMKLR1 (setting [7]) was 7.43; on hCMKLR1 (pEC50 ± SEM, Ca^2+ flux), 7.43.

As for Tam-YFP(c(CH2)QFAFC), the not cleaved result in “human blood plasma” is on record as “same stability for 24 h; t1/2 >24 h”. On to `C[C@@H]1NC(=O)[C@H](Cc2ccccc2)NC(=O)[C@H](CCC(N)=O)NC(=O)[C@H](NC(=O)[C@@H]2CCCN2C(=O)[C@H](Cc2ccccc2)NC(=O)[C@H](Cc2ccc(O)cc2)NC(=O)c2ccc3c(c2)C2(OC3=O)c3ccc(N(C)C)cc3Oc3cc(N(C)C)ccc32)CSCSCC[C@@H](C(=O)O)NC(=O)[C@H](Cc2ccccc2)NC1=O` [Compound 6T, Tam-YFP(c(CH2)QFAFX)] (X1-YFP[dC]QFAF[hCys]-OH; linker 4-9 via CH2), for which the half-life in data set [1] was more than 1440 min.

Mtx-GFLGK(Ac)YFP(xQFAFC) [Compound 15]: in data set [2], the “increase in toxicity compared to MTX itself” value is listed as “almost eightfold increase in toxicity”. The “toxicity (in words)” value in data set [3] is reported as “exerted no toxicity; also recorded: not toxic at concentrations up to 10 µM”. With Tam-YFP(c(CH2)QFAFX), the not cleaved entry in the data set “human blood plasma” is “same stability for 24 h; t1/2 >24 h”. `CN(C)c1ccc2c(c1)Oc1cc(N(C)C)ccc1C21OC(=O)c2ccc(C(=O)NCCCC[C@@H]3NC(=O)[C@H](Cc4ccccc4)NC(=O)[C@H](CCC(N)=O)NC(=O)[C@H](NC(=O)[C@@H]4CCCN4C(=O)[C@H](Cc4ccccc4)NC(=O)[C@@H](N)Cc4ccc(O)cc4)CSSC[C@@H](C(=O)O)NC(=O)[C@H](Cc4ccccc4)NC3=O)cc21` [Compound 7T, YFP(cQFK(Tam)FC)] (H-YFP[dC]QFK(X1)FC-OH; disulfide 4-9) gave a half-life in data set [1] of less than 12 min. Still for that read-out and setting: as for `C[C@@H]1NC(=O)[C@H](Cc2ccccc2)NC(=O)[C@H](CCC(N)=O)NC(=O)[C@H](NC(=O)[C@@H]2CCCN2C(=O)[C@H](Cc2ccccc2)NC(=O)[C@H](Cc2ccc(O)cc2)NC(=O)c2ccc3c(c2)C2(OC3=O)c3ccc(N(C)C)cc3Oc3cc(N(C)C)ccc32)CSCSC[C@@H](C(=O)O)NC(=O)[C@H](Cc2ccccc2)NC1=O` [Compound 5T, Tam-YFP(c(CH2)QFAFC)] (X1-YFP[dC]QFAFC-OH; linker 4-9 via CH2), the figure is more than 1440 min.

On to `C[C@@H]1NC(=O)[C@H](Cc2ccccc2)NC(=O)[C@H](CCC(N)=O)NC(=O)[C@H](NC(=O)[C@@H]2CCCN2C(=O)[C@H](Cc2ccccc2)NC(=O)[C@@H](N)Cc2ccc(O)cc2)CSCSC[C@@H](C(=O)O)NC(=O)[C@H](Cc2ccccc2)NC1=O` [Compound 5, YFP(c(CH2)QFAFC)] (H-YFP[dC]QFAFC-OH; linker 4-9 via CH2), for which the negative-log EC50 (pEC50) was 7.89 at hCMKLR1 (setting [7]) and 7.89 at hCMKLR1 (pEC50 ± SEM, Ca^2+ flux). On to “Tam-EG(4)-YFPGQFAAS ({Tam-EG(4)}-YFPGQFAAS) [Compound 13T, alanine-substituted Tam-labeled linear peptide, negative control]”, for which the “intracellular accumulation of Tam-fluorescence over time” value in data set [4] is reported as “did not accumulate in the cells”. Tam-EG(4)-YFP(xQFAFC): in the data set “human blood plasma”, the not cleaved entry is “not degraded in blood plasma for at least 24 h; t1/2 >48 h”.

With `CN(C)c1ccc2c(c1)Oc1cc(N(C)C)ccc1C21OC(=O)c2ccc(C(=O)N[C@@H](Cc3ccc(O)cc3)C(=O)N[C@@H](Cc3ccccc3)C(=O)N3CCC[C@H]3C(=O)N[C@@H]3CSSC[C@@H](C(=O)N[C@@H](Cc4ccccc4)C(=O)N[C@@H](CO)C(=O)O)NC(=O)[C@H](Cc4ccccc4)NC(=O)[C@H](CCC(N)=O)NC3=O)cc21` [Compound 2T, Tam-YFP(cQFCFS)] (X1-YFP[dC]QFCFS-OH; disulfide 4-7), the half-life in data set [1] was 45 min. Take “methotrexate conjugate 15, Mtx-GFLGK(Ac)YFP(xQFAFC) (peptide)”: in data set [5], the toxicity in a resazurin-based cell viability assay, HMEC-1 cells endogenously expressing CMKLR1, 72 h, IC50 came to 2000 nM. Moreover, the toxicity in a resazurin-based cell viability assay, HEK293 cells stably transfected with CMKLR1-eYFP, 72 h, IC50 (no toxicity on HEK293 cells devoid of CMKLR1 up to 10 µM) in data set [6] turned out to be 61 nM.

In the case of `CN(C)c1ccc2c(c1)Oc1cc(N(C)C)ccc1C21OC(=O)c2ccc(C(=O)N[C@@H](Cc3ccc(O)cc3)C(=O)N[C@@H](Cc3ccccc3)C(=O)N3CCC[C@H]3C(=O)N[C@@H]3CSCSC[C@@H](C(=O)N[C@@H](Cc4ccccc4)C(=O)N[C@@H](CO)C(=O)O)NC(=O)[C@H](Cc4ccccc4)NC(=O)[C@H](CCC(N)=O)NC3=O)cc21` [Compound 3T, Tam-YFP(c(CH2)QFCFS)] (X1-YFP[dC]QFCFS-OH; linker 4-7 via CH2), the half-life in data set [1] was 18 min. For the molecule `C[C@@H]1NC(=O)[C@H](Cc2ccccc2)NC(=O)[C@H](CCC(N)=O)NC(=O)[C@H](NC(=O)[C@@H]2CCCN2C(=O)[C@H](Cc2ccccc2)NC(=O)[C@@H](N)Cc2ccc(O)cc2)CSSC[C@@H](C(=O)O)NC(=O)[C@H](Cc2ccccc2)NC1=O` [Compound 4, YFP(cQFAFC)] (H-YFP[dC]QFAFC-OH; disulfide 4-9), the pEC50 on hCMKLR1 (pEC50 ± SEM, Ca^2+ flux) is 7.19. With yFP(cQFK(Tam)FC), the not cleaved result in the data set “human blood plasma” is given as “fully stable in blood plasma for 24 h; t1/2 >24 h”. `C[C@@H]1NC(=O)[C@H](Cc2ccccc2)NC(=O)[C@H](CCC(N)=O)NC(=O)[C@H](NC(=O)[C@@H]2CCCN2C(=O)[C@H](Cc2ccccc2)NC(=O)[C@H](N)Cc2ccc(O)cc2)CSCSCC[C@@H](C(=O)O)NC(=O)[C@H](Cc2ccccc2)NC1=O` [Compound 10, yFP(c(CH2)QFAFX)] (H-[dY]FP[dC]QFAF[hCys]-OH; linker 4-9 via CH2): the pEC50 on hCMKLR1 (setting [7]) is 7.55; on hCMKLR1 (pEC50 ± SEM, Ca^2+ flux) it was 7.55.
